# Results reported in patent US20230339866A1, “Quinazoline compounds and the use thereof in the treatment of cancer” (TROBIO THERAPEUTICS PTY LTD, priority 2020, published 2023).
# Tests used:
# A549 (NSCLC) = assay: Anti-proliferative activity (Cell-Titre luminescence) against A549 non-small cell lung cancer cells; format: cell-based; conditions: Homo sapiens, A549, 72 h, 72 h exposure, Cell-Titre luminescent reagent
# Outline: (§1)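 EC50 derived by nonlinear variable-slope sigmoidal fit of luminescent Cell-Titre viability, normalised to vehicle control. Compound (0.1–30 μM, six concentrations) applied for 72 h after 24 h attachment at 37 °C, 5% CO2.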
# A2780 (ovarian) = assay: Anti-proliferative activity (Cell-Titre luminescence) against A2780 ovarian cancer cells; format: cell-based; conditions: Homo sapiens, A2780, 72 h, 72 h exposure, Cell-Titre luminescent reagent
# Outline: as §1
# Caco-2 (colorectal) = assay: Anti-proliferative activity against Caco-2 colorectal cancer cells; format: cell-based; conditions: Homo sapiens, 72 h exposure
# Description: (§2) The ability of compounds of the invention to inhibit the proliferation of cancer cells representative of non-small cell lung cancer and ovarian cancer (Table 2), pancreatic cancer, colorectal cancer and prostate cancer (Table 3) was assessed. Briefly, a predetermined number of cells as calculated from cell growth assays for each of the cell lines employed were seeded into their respective culture medium (using ATCC culture parameters—http://www.atcc.org) and cultured for 24 h at 37° C. and 5% CO2 in 96-well culture plates. Once attached, each cell line was then exposed to various concentrations of each respective analogue (30, 10, 3, 1, 0.3 and 0.1 μM), cultured for a further 72 h and exposed to Cell-Titre luminescent reagent (100 μL/well) for a further 30 min. Luminescence was captured using an EnVision multilabel reader and the data for each analogue concentration compared against no treatment control. Cell viability was normalised to control (vehicle alone) and dose response curves, and half maximal effective concentration (EC50) values were determined using Graph Pad Prism 6 (nonlinear regression sigmoidal dose-response variable slope).
# MIA PaCa-2 (pancreatic) = assay: Anti-proliferative activity against MIA PaCa-2 pancreatic cancer cells; format: cell-based; conditions: Homo sapiens, 72 h exposure
# Description: as §2
# PC3 (prostate) = assay: Anti-proliferative activity against PC3 prostate cancer cells; format: cell-based; conditions: 72 h exposure
# Description: as §2
# [1] = tested on: SK-N-SH neuroblastoma cells; assay: Anti-proliferative activity (MTS assay) against SK-N-SH neuroblastoma cells; format: cell-based; conditions: Homo sapiens, SK-N-SH, 72 h
# Description: The ability of compounds of the disclosure to inhibit the proliferation of SK-N-SH neuroblastoma cells was also assessed. […] Cell viability was normalised to control (vehicle alone) and dose response curves and IC50 values (Table 4) were determined using Graph Pad Prism 6.
# Tpm3.1 [2] = target: T1, Tpm3.1 (Homo sapiens, UniProt P06753); assay: Actin depolymerisation assay; format: biochemical; conditions: 50 μmol/L test compound, pyrene-labelled F-actin, 160 minutes
# Description: A 12 μmol/L solution of labelled F-actin was prepared by polymerising the monomeric actin (35% pyrene labelled Rabbit Muscle (Cytoskeleton Inc)) into filaments in the presence of buffer T (100 mmol/L NaCl; 10 mmol/L Tris HCl pH 7.5; 2 mmol/L MgCl2; 1 mmol/L EGTA; 0.5 mmol/L DTT) with added ATP (0.2 mmol/L), for 1 hour in the dark at room temperature. Tpm3.1 (10 μmol/L) was reduced in buffer T containing 1 mmol/L DTT at 70° C. for 6 minutes and centrifuged at 60,000 rpm for 30 minutes to remove nonreduced dimers. […] Duplicate samples were diluted 12-fold using an F-actin polymerisation buffer (100 mmol/L NaCl; 10 mmol/L Tris HCl pH 7; 2 mmol/L MgCl2; 1 mmol/L EGTA; 0.2 mmol/L ATP; 1 mmol/L DTT) and the depolymerisation rates of F-actin alone, F-actin/Tpm3.1, and the F-actin/Tpm3.1/test compound filament complex were measured using a Costar 3915 fluorescence plate reader (407 nm) at 36-second intervals for 160 minutes at room temperature. Data were normalized to the initial fluorescence value and polymerisation curves of duplicate samples were fitted to a two-phase exponential decay model using OriginPro 9.1 (OriginLab) (FIG. 3A). Percent polymerisation was determined at t160 as a function of to (100%) (FIG. 3B, p<0.0001).
# Target sequence in this assay (P06753 1-248 isoform P06753-2): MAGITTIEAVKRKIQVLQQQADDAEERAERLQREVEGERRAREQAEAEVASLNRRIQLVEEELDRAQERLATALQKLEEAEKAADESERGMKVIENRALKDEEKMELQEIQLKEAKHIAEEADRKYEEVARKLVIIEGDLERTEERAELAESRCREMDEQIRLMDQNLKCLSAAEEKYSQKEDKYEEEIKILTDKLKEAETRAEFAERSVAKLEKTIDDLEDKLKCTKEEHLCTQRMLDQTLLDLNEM
# [3] = tested on: Tpm3.1-containing actin microfilaments; assay: Disruption of Tpm3.1-containing actin microfilaments in SK-N-SH cells (imaging and quantitation); format: cell-based; conditions: SK-N-SH cells expressing Tpm3.1-mCherry, 24 hours, two concentrations
# Description: The ability of compounds 57, 87 and 92 to disrupt Tpm3.1-containing actin microfilaments was investigated in SK-N-SH neuroblastoma cells that express Tpm3.1 labelled with the mCherry fluorophore. Cells were seeded at 3×10^4 cells per well in a volume of 1000 μL complete media onto a 12 well plate containing 13 mm coverslips and left to plate down for 24 hours prior to treatment. Cells were then treated with DMSO and two concentrations of the test compounds. 24 hours post-treatment, cells were fixed with 16% paraformaldehyde (PBS) and stained with 488-Atto-Phalloidin to visualise the actin filament bundles. Single plane images were obtained using the Olympus IX83 epi-fluorescence microscope. Ten fields of view were collected for both Tpm3.1 mCherry fluorophore (FIG. 4) and 488-Atto-Phalloidin (FIG. 5) with each treatment condition.
# Quantitation of either Tpm3.1 mCherry filaments or 488-Atto-Phalloidin filaments was performed using ImageJ 1.52p software (ImageJ, NIH). The mean pixel intensity from a cell was measured by using a line across the entire cell cytoplasmic area above or below the nuclear region. The line was made to cross the filament bundles at a […] for the measurement rather than run along a single filament. A total of n=100 cells were measured from ten fields of view. Cells with pixel intensities that were more than twice the average intensity in the field were excluded from the measurement. The mean pixel intensity from n=100 cells was imported into Microsoft Excel to obtain the average intensity of either Tpm3.1 mCherry filaments or 488-Atto-Phalloidin filaments from each treatment condition. Values were normalised as a percent of the 0 μM control in order to generate a bar graph.
# [4] = tested on: A2780 ovarian cancer cells; conditions: Bliss score
# Description: (§3) The A2780 cell line was maintained as a monolayer in Dulbeccos Modified Eagles medium (DMEM) supplemented with 10% foetal bovine serum (FBS) and grown at 37° C. in a humidified atmosphere with 5% CO2. […] Each screening plate contained one 6×6 dose matrix for two drugs using two-fold dilution steps. […] Viability was measured after 72 hours using a standard MTS assay.
# (§4) Synergistic drug interactions were determined for each pairwise drug combination by applying the Bliss-independence model that assumes independence of drug mechanisms.
# (§5) The Bliss additivism model was used to calculate a predicted combined response C to two single agents with responses A and B (using GI values), as follows:
# (§6) The final score for any combination was reported as the difference between the value predicted by the additive model and the experimentally observed value, normalised to 100. Using GI values the maximum possible synergy score is 100, with 0 indicating no synergy and negative indicating possible antagonism. Scores were also reported as a “Max synergy” score, which is the highest individual synergy score for each combination matrix, and a “Total synergy” score, which was obtained by summation of each individual synergy score for the matrix.
# [5] = tested on: A2780 ovarian cancer cells; assay: cells; conditions: Homo sapiens, A2780, 72 h, read-out: IC50 values used for the dose matrix (compounds)
# Description: as §3, §4, §5, §6
# Tpm3.1 [6] = target: T1, Tpm3.1; assay: Circular dichroism spectroscopy, thermal unfolding of Tpm3.1 peptides; format: binding; set-up: N-terminus (residues 2-80 with an initial Ala-Gly dipeptide to mimic N-terminal acetylation) of Tpm3.1; Peptides corresponding to the C-terminus (residues 139-248) and N-terminus; made in house; conditions: test compound 100 μM, peptide 20 μM, CD at 222 nm
# Description: The interactions of compounds 11, 13, 32 and 92 with the N-terminus and overlap region of Tpm3.1 were measured using circular dichroism (CD) spectroscopy (see FIG. 1). Peptides corresponding to the C-terminus (residues 139-248) and N-terminus (residues 2-80 with an initial Ala-Gly dipeptide to mimic N-terminal acetylation) of Tpm3.1 were prepared as described in the literature (Janco et al., 2019). CD spectra and thermal unfolding isotherms of N_82AA_Tpm3.1 and C_109AA_Tpm3.1 peptides were acquired on a Chirascan Plus CD Spectrometer (Applied Photophysics Limited, U.K.) in stoppered 0.5 mm cuvettes (48/Q/0.5; Starna Scientific Ltd.). Proteins were dialyzed O/N against 10 mM NaH2 PO4, 150 mM NaCl, 75 μM TCEP (added prior to experiment), 1% (v/v) acetonitrile pH 7 buffer. Final concentration of peptides was 20 μM. Tpm samples containing the test compound (100 μM) were incubated at 37° C. O/N. CD spectra were measured from 195 to 260 nm with a 1 nm step size and a […], taking 3 to 4 averages at 37° C. The thermal unfolding was carried at 222 nm over the range 20-85° C. at the rate of 1° C./min. Sample was cooled down to the initial temperature and heating procedure was repeated 2 to 3 times. To obtain information of the major thermal transitions from individual isotherms, data were further smoothed by the Savitzky-Golay method (5-point window), differentiated and then fitted to multiple Gaussian peaks as described previously (Janco et al., 2012) (FIG. 2).
# Target sequence in this assay (P06753 with tags, fused parts or gaps isoform P06753-2): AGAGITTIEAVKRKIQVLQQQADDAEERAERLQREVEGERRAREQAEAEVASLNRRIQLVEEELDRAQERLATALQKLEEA
smiles,measurement,setting,value
"OCCCNc1nc(NCCc2cccc(C(F)(F)F)c2)nc2ccccc12 [Compound 92, 3-((2-((3-(trifluoromethyl)phenethyl)amino)quinazolin-4-yl)amino)propan-1-ol]",IC50,A549 (NSCLC),1.3 µM
same,IC50,A2780 (ovarian),2.22 µM
same,IC50,Caco-2 (colorectal),2.48 µM
same,IC50,MIA PaCa-2 (pancreatic),3.19 µM
same,IC50,PC3 (prostate),4.49 µM
same,IC50,[1],2 µM
same,Inhibition of Tpm3.1 protection of actin filaments from depolymerisation,Tpm3.1 [2],inhibit the ability of Tpm3.1 to protect actin filaments from depolymerisation
same,Disruption of Tpm3.1-containing actin microfilaments,[3],disrupt Tpm3.1-containing actin microfilaments in a dose-dependent manner
same,Paclitaxel Max. Synergy,"[4]; combination with paclitaxel, highest individual score of 6×6 matrix",17.97
same,Paclitaxel Total Synergy,"[4]; combination with paclitaxel, sum over matrix",100.06
same,Vinorelbine Max. Synergy,"[4]; combination with vinorelbine, highest individual score of 6×6 matrix",27.55
same,Vinorelbine Total Synergy,"[4]; combination with vinorelbine, sum over matrix",204.68
same,IC50,[5],5 µM
same,Effect on melting profile of the Tpm3.1 N-terminal peptide construct,Tpm3.1 [6],alter the melting profile
same,Effect on stability of the Tpm3.1 N-terminal peptide,Tpm3.1 [6],decrease the stability
